# Legend:
# 4T1-Luc2 cells = assay: 4T1-Luc2 breast cancer model, tumor volume; format: in vivo, BALB/c mice; conditions: RS-127445 2 mg/kg/day + paclitaxel 2 mg/kg/alternate days; 4T1-luc2 model (FIG. 16A)
# Experimental: FIG. 7 depicts that antagonizing the 5-HTR2B in mice inhibits breast and colon tumor growth: (A) MC38 colon cancer cells were injected subcutaneously into the right flank of C57BL/6 mice. […] Tumor volumes were measured and plotted. (B) MC38 colon cancer cells were injected subcutaneously into the right flank of C57BL/6 mice. After seven days when tumors became palpable, one group was treated with 5-HTR7 antagonist SB-269970 (n=6 mice; 3 mg/kg/day) or left untreated (n=6 mice). Tumor volume was measured and plotted. (C) After seven days of the setting of tumor growth, one group was treated with a serotonin transporter blocker (SSRI) sertraline hydrochloride (n=6 mice; 15 mg/kg/week) or left untreated (n=6 mice). Tumor volume was measured and plotted. (D) C57BL/6 mice were given subcutaneously injected MC38 cells. After seven days of tumor growth, one group of mice was treated with different doses of 5-HTR2B antagonist SB-215505 (n=6). Tumor volume was measured and plotted. […] Tumor volume was measured and plotted. […] Tumor growth was measured and plotted. […] Tumour volumes were measured and plotted. […] Tumour volumes were measured and plotted. […]
# FIG. 16 depicts the effect of the 5-HTR2B antagonist on the FDA-approved chemotherapy drug treatment: (A) BALB/C mice were inoculated with 4T1-Luc2 cells in the mammary fat pad. […] Tumor volume was measured and plotted. […]
# MC38 tumor = assay: CD31+ micro-blood vessel count in MC38 tumor sections (IHC, angiogenesis); format: in vivo, mice; conditions: MC38 tumor harvested after 20 days of tumor inoculation
# Experimental: FIG. 6 depicts that 5-HTR2B signalling in colon cancer affects cell proliferation and viability: Colon cancer MC38 cells were treated with serotonin (100 μM), 5-HTR2B agonist (BW-723C86; 50 μM), or 5-HTR2B antagonist (SB-215505; 50 μM) for 48 hours, and cell cycle analysis was performed by propidium iodide staining using flow cytometry. MC38 cells were also treated with a graded dose of 5-HTR2B agonist (BW-723C86) or serotonin. MTT assay was performed to measure cell viability. (A) After treatment with 5-HTR2B agonist BW-723C86, serotonin, or 5-HTR2B antagonist SB-215505, the relative cell cycle analysis is shown. (B) Relative cell viability data of MC38 cells following treatment of graded doses of 5-HTR2B agonist BW-723C86 or serotonin are shown. The data shown are representative of one of the three independent experiments. (C) MC38 tumor sections from the control tumor and 5-HTR2B antagonist treated tumor were stained for CD31 and the number of CD31^+ micro-blood vessels/mm^2 of tissue sections was counted and plotted to observe angiogenesis. […]
# For fluorescence-based immunohistochemical staining, tissues were embedded in OCT tissue freezing media (Fisher Scientific) and stored at −80° C. […] The images were captured using Olympus FV3000 confocal microscope (Waltham, Massachusetts), and the images were analysed using Cellsens software (Olympus; Waltham, Massachusetts). […]
compound,measurement,setting,value
CC(C)c1cc(-c2ccc(F)c3ccccc23)nc(N)n1 [RS-127445],"tumor growth, combination with paclitaxel",4T1-Luc2 cells,much better response by reducing tumor growth than any of them alone
same,number of CD31+ micro-blood vessels/mm^2 in the tumor area,MC38 tumor,reduced the number of micro-blood vessels/mm^2
